Where two headings read alike, the source gives them in different places.

For assay [1], the target named is T1, ADRB2 (Homo sapiens, UniProt P07550). It is filed as cell-based. Conditions: ADRB2-tTA with low efficiency cleavage site; clone 41 cells.
The target in assay [2] is T1, ADRB2.
The target in another assay is ADRB1 (Homo sapiens, UniProt P08588).
For another assay, the target named is T2, ADRA2C (Homo sapiens, UniProt P18825).
T2 sequence (P18825 1-462): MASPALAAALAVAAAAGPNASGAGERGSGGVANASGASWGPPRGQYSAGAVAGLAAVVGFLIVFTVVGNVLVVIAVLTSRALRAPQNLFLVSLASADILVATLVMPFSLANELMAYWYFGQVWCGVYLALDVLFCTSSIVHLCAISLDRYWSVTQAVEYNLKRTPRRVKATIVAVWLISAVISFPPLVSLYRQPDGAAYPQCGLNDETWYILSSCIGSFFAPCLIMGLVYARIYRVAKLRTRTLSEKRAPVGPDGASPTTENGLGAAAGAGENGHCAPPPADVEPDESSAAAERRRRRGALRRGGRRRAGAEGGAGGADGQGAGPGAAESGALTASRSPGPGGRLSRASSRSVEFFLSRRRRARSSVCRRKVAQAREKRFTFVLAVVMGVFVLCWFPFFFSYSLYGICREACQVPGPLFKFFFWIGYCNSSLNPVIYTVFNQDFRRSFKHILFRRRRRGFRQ
Conditions: varying concentrations of agonist.

For assay [3], the target named is T1, ADRB2. Particulars: 1 μM each agonist; mixed clone 41 and clone 1H10 cells; about 24 hours.
Assay [4] addresses DRD2 (Homo sapiens, UniProt P14416+P30550). Particulars: μM dopamine; DRD2-GRPR 42aa Tail-tTA, low efficiency cleavage site.
The target in assay [5] is T3, DRD2 (Homo sapiens, UniProt P14416). Particulars: 1 μM each agonist; mixed clone 41 and clone 1H10 cells; about 24 hours.
Assay [6] addresses T3, DRD2. Conditions: 10 μM; DRD2-AVPR2 Tail-tTA, low efficiency cleavage site.
Assay [7] addresses dopamine 2 receptor (DRD2) (Homo sapiens, UniProt P14416). Conditions: 10 μM, medium efficiency cleavage site.
The target in the next assay is ADRA1A (Homo sapiens, UniProt P35348). Particulars: 10 μM, low efficiency cleavage site.
Assay [8] deals with serotonin receptor 1a (HTR1A) (Homo sapiens, UniProt P08908). It is filed as cell-based. Particulars: 10 μM; low efficiency cleavage site.
Description: A similar set of constructs were made to establish an assay for the G protein coupled serotonin receptor 1a (HTR1A).
The target in assay [9] is DRD2-GRPR 42aa Tail-tTA fusion construct containing the low efficiency cleavage site (UniProt P14416). The assay is described as follows: cell-based or functional assay.
For assay [10], the target named is T4, human Type I Interferon Receptor (Homo sapiens, UniProt P17181+P48551).
T4 sequence (P17181 28-557): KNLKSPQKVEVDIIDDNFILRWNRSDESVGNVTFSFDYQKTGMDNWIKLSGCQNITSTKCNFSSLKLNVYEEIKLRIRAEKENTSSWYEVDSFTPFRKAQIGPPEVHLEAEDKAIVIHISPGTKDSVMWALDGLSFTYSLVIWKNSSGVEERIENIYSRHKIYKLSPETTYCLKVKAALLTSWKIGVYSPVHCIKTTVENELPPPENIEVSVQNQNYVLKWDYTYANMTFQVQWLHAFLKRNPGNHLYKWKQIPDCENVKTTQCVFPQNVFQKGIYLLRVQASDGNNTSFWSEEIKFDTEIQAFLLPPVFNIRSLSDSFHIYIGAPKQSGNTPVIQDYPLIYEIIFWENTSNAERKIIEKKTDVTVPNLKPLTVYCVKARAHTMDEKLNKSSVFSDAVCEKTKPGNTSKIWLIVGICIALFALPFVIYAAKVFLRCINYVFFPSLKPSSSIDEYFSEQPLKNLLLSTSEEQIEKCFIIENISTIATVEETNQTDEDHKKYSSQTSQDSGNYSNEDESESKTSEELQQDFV
T4 sequence (P48551 27-515): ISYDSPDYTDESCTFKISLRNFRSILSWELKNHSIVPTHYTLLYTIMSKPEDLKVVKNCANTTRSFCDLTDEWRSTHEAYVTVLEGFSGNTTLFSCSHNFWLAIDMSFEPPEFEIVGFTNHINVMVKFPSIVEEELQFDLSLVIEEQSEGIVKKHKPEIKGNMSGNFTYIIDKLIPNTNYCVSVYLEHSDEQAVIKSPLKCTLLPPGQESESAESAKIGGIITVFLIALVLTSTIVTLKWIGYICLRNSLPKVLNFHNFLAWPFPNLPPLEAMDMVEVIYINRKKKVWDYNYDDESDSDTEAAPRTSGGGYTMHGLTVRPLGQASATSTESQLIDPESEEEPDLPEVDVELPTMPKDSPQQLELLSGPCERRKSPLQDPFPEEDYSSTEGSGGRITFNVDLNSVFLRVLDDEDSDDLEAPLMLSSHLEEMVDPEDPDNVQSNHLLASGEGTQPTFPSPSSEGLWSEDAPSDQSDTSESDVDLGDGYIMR
The assay is described as follows: IFNAR1-tTA / IFNAR2.2-TEV luciferase reporter assay in HTL5B8.1 cells. It is filed as cell-based. Conditions: 5000 U/ml, 18-20 hours.

The target in assay [11] is T4, human Type I Interferon Receptor. The assay is described as follows: IFNAR1-GAL4-NF-κB / IFNAR2.2-TEV luciferase reporter assay in CHO-K1 cells. Also noted: expressed in transfected cells; host or cells: CHO-K1; CMV-STAT1, CMV-STAT2 and pFR-Luc co-transfected. It is filed as cell-based. In general terms: A reporter such as luciferase makes a cellular process visible.

Assay [12] addresses chemokine (C-C motif) receptor 5 (CCR5) (Homo sapiens, UniProt P51681). The assay is described as follows: CCR5-tTA reporter assay in clone 34 cells. It is filed as cell-based. Particulars: 1 μg/ml; low efficiency cleavage site. The text has this: α Constructs were also made to establish an assay for the G protein coupled chemokine (C—C motif) receptor 5 (CCR5). The CCR5 coding region (Genbank Accession Number: NM_000579) (SEQ ID NO: 32) was modified to place Not I site at the 5′ end and replace the stop codon with a BamHI site using PCR with the primers
The first modified coding region was cut with ClaI and BamHI and the second was cut with BsaI and ClaI. Both fragments were ligated into the AVPR2-tTA constructs described supra, which had been cut with EcoRI and BamHI. This replaced the entire coding sequence of AVPR2 with the coding sequence of CCR5.
Assays were carried out using 1 μg/ml “Regulated on Activation, Normal T-Cell Expressed and Secreted” (RANTES), a known agonist for CCR5.

Assay [13] addresses CCR5-tTA fusion construct containing the low efficiency cleavage site (UniProt P51681). The assay is described as follows: cell-based or functional assay.
Assay [14] concerns the target EGFR-TEV-NIa-Pro cleavage (Leu)-tTA (human) (UniProt P00533). The assay is described as follows: cell-based or functional assay.
For assay [15], the target named is epidermal growth factor receptor (EGFR) (Homo sapiens, UniProt P00533). The assay is described as follows: EGFR-tTA / PLC Gamma1-TEV luciferase reporter assay in HTL5B8.1 cells. The assay is classed as cell-based. Particulars: 100 ng/ml; six hours.
Assay [16] concerns the target human Type I Interferon Receptor (IFNAR1-TEV-NIa-Pro cleavage (L)-tTA with IFNAR2.2-TEV, in HTL5B8.1 cells) (human; tobacco etch virus) (UniProt P17181). The assay is described as follows: cell-based or functional assay.

Chain of ADRB1 (P08588 whole entry): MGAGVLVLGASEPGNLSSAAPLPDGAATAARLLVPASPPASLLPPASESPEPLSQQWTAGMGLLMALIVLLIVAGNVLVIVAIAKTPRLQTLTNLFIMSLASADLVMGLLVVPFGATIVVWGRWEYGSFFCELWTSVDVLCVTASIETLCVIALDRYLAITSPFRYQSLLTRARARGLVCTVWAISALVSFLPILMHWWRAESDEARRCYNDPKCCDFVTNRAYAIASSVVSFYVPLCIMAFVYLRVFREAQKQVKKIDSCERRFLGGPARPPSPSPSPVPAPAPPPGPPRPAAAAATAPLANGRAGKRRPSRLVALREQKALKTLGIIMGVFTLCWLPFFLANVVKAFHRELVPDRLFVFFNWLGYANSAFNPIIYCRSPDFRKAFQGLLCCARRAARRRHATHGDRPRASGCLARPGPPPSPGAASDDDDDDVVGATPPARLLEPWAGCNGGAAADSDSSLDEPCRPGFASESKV
Chain of dopamine 2 receptor (DRD2) (P14416 whole entry): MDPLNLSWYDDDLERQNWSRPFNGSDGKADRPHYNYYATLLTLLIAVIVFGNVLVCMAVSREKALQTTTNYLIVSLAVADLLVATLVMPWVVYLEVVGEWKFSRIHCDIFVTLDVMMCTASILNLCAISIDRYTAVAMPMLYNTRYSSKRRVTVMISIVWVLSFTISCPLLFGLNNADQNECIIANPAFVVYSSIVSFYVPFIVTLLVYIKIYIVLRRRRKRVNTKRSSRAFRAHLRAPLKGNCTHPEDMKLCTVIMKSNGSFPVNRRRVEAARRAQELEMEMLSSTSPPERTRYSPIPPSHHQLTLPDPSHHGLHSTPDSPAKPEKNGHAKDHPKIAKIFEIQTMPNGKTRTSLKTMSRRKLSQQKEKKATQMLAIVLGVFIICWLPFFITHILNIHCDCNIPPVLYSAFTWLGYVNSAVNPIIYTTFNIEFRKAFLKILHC
Chain of CCR5-tTA fusion construct containing the low efficiency cleavage site (P51681 whole entry, the tested form may be a part): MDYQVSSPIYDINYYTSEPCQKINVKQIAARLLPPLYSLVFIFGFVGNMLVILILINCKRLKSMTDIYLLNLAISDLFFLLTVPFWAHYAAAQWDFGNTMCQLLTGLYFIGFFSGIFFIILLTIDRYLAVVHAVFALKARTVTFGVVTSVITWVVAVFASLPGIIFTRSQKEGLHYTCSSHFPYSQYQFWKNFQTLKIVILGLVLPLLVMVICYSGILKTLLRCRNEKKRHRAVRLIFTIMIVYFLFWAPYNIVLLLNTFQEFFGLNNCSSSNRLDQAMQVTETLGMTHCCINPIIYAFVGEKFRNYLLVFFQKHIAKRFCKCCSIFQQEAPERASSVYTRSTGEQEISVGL
Chain of DRD2-GRPR 42aa Tail-tTA fusion construct containing the low efficiency cleavage site (P14416 other isoform, or with tags, fused parts or gaps): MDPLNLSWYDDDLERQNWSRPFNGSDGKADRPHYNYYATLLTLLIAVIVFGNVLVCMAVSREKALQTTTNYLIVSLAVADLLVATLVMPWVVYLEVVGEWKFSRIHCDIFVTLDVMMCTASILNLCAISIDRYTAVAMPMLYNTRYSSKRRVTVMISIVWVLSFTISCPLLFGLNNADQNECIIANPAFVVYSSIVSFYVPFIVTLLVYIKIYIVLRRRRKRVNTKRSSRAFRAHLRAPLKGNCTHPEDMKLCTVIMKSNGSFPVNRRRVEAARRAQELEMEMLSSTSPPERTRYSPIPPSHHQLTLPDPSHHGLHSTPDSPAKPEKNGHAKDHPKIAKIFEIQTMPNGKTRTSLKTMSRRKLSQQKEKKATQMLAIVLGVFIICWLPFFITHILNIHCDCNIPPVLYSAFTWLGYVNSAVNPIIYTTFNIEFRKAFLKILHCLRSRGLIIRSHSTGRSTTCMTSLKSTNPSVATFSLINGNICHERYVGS

As for `Nc1ncnc2c1ncn2[C@@H]1O[C@H](COP(=O)(O)OP(=O)(O)OP(=O)(O)O)[C@@H](O)[C@H]1O` [ATP], the “induction of reporter gene activity by an agonist of other, endogenous GPCRs (P2Y1, P2Y2)” value at ADRB2 [1] is “Stimulation of another GPCR pathway was irrelevant”.

With `Brc1c(NC2=NCCN2)ccc2nccnc12` [UK14,304], the “agonist effect on the receptor” value on ADRB2 [2] (any concentration used, FIG. 11B) was “no effect”; on ADRB1 (any concentration used, FIG. 11A), “no effect”. Moreover, the “agonist response, UK14,304 compared with isoproterenol” value at ADRA2C is listed as “respond to much lower concentration of UK14,304 than isoproterenol”.

Regarding `Cl.NCCc1ccc(O)c(O)c1` [dopamine, dopamine HCl], the “induction of beta-galactosidase reporter gene activity” value at ADRB2 [3] is “remained unchanged”. Further, the “maximal response, increase in reporter gene activity” value on DRD2 [4] is on record as “approximately 30 fold”. On DRD2 [5], the “induction of luciferase activity” value is 3.5 fold. Further, the entries for the “maximal response, induction of reporter gene expression over the background” value (from here on “maximal response … over the background”) (on DRD2 [6]; in assay [7] (ARRB1-TEV-NIa protease fusion); in assay [7] (ARRB2-TEV-NIa protease fusion)) were “approximately 60 fold”, 2.1 fold and 2.7 fold, respectively.

On to `CNC[C@H](O)c1ccc(O)c(O)c1` [epinephrine], for which the “maximal response … over the background” value at ADRA1A (ADRA1A-GRPR 23aa Tail-tTA) is on record as “approximately 102 fold”. On ADRA1A (ADRA1A-GRPR 42aa Tail-tTA), the “maximal response, increase in reporter gene activity” value is “approximately 14 fold”.

Regarding `NCCc1c[nH]c2ccc(O)cc12` [serotonin], the “maximal response, induction of reporter gene expression over background level” value in [8] was found to be 4.6 fold.

Regarding `COC(=O)[C@@H]1[C@H]2C[C@H]3c4[nH]c5ccccc5c4CCN3C[C@@H]2CC[C@@H]1O` [yohimbine], the “inhibition of receptor response by antagonist” value was “inhibition at only the very highest concentrations tested” on ADRB2 [2] (FIG. 11G) and “no effect” against ADRB1 (FIG. 11F).

As for “ARRB2-TEV-NIa protease fusion (from UniProt P32121 1-409)”, the fold increase in reporter gene activity (luciferase), dopamine in assay [9] came out at 30 fold.

Turning to IFN-α, the “increase in reporter gene activity” value in assay [10] turned out to be 15 fold; in [11] (5000 U/ml, 6 hours, CHO-K1 cells with reporter, IFNAR and STAT constructs), 3 fold. Further, in assay [11] (CHO-K1 cells transfected with the reporter and control plasmids), the “effect on reporter gene activity” value is “no effect”.

For the molecule “RANTES: Regulated on Activation, Normal T-Cell Expressed and Secreted, a known agonist for CCR5”, the “maximal response … over the background” value in assay [12] was “approximately 40 fold”.

With “Regulated on Activation, Normal T-Cell Expressed and Secreted (RANTES) (from UniProt P13501 24-91) (ligand)”, the maximal fold induction of reporter gene expression over the background, 1 µg/ml RANTES in assay [13] worked out at 40 fold.

Turning to “human Transforming Growth Factor-Alpha (from UniProt P01135 40-89) (ligand)”, in assay [14], the fold increase of luciferase reporter gene activity, 100 ng/ml human Transforming Growth Factor-Alpha was found to be 18.3 fold.

Consider “human Transforming Growth Factor—Alpha: human Transforming Growth Factor-Alpha, EGFR agonist”, for which the “increase of luciferase reporter gene activity” value in assay [15] was determined as 18.3 fold.

The molecule human interferon-alpha (ligand) showed a fold increase in reporter gene activity (luciferase), 5000 U/ml IFN-α in assay [16] of 15 fold.

In turn, “human interferon-beta (from UniProt P01574 22-187) (ligand)” yielded a fold increase in reporter gene activity (luciferase), 5000 U/ml IFN-β in assay [16] of 10 fold.

Values taken from patent US20080274913A1, “Multiplex Array Useful for Assaying Protein-Protein Interaction” (priority 2005, published 2008).
